Measured values as given in US5789434A, “Derivatives of substituted 4-biarylbutyric acid as matrix metalloprotease inhibitors” (priority 1995, dated 1998).

Assays:
Assay type in all cases: biochemical
MMP-9 = target: T1, MMP-9 (Homo sapiens, UniProt P14780); assay: Automated MMP Profiling Assay, MMP-9 fluorogenic; details: for IC50: 96-well automated, P218
T1 construct: from tissue; host or cells: human polymorphonuclear leukocytes (PMN) from whole blood (New York Blood Center), PMA-stimulated supernatant

MMP-3 = target: T2, MMP-3 (Homo sapiens, UniProt P08254); assay: Automated MMP Profiling Assay, MMP-3 fluorogenic; details: for IC50: 96-well automated, P218
T2 construct: Truncated Prostromelysin-257 was expressed in a soluble form in E.coli; made in house; host or cells: E. coli
Description: This assay with each invention compound was run with the three enzymes MMP-3, MMP-9 and MMP-2 in parallel as adapted for a 96-well microtitre plate using a Hamilton A® workstation.

MMP-2 = target: T3, MMP-2 (Homo sapiens, UniProt P08253); assay: Automated MMP Profiling Assay, MMP-2 fluorogenic; details: for IC50: 96-well automated, P218, read-out: MMP-2 Fluorogenic IC50 (profiling)
T3 sequence (P08253 110-660): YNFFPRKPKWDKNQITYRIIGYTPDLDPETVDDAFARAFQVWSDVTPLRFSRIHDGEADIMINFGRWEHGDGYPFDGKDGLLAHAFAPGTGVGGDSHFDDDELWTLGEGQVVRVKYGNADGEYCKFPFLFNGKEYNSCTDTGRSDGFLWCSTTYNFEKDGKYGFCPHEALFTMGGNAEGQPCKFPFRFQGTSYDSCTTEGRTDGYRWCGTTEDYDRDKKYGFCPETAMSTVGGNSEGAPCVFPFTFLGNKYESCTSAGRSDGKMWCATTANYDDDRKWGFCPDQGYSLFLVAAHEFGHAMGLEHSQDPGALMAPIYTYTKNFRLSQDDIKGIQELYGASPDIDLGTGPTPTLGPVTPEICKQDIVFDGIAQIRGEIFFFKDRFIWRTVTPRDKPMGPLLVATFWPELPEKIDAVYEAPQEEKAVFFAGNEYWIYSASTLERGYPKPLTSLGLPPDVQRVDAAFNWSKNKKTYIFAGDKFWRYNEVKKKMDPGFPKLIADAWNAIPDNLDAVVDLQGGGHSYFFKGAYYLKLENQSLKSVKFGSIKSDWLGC

T2 sequence (P08254 100-274 limits assumed): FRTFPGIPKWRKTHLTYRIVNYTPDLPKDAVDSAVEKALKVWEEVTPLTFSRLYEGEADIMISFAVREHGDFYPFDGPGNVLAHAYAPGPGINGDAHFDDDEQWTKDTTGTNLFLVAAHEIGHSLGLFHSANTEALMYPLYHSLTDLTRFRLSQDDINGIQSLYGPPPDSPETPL
T1 sequence (P14780 107-707 limits assumed): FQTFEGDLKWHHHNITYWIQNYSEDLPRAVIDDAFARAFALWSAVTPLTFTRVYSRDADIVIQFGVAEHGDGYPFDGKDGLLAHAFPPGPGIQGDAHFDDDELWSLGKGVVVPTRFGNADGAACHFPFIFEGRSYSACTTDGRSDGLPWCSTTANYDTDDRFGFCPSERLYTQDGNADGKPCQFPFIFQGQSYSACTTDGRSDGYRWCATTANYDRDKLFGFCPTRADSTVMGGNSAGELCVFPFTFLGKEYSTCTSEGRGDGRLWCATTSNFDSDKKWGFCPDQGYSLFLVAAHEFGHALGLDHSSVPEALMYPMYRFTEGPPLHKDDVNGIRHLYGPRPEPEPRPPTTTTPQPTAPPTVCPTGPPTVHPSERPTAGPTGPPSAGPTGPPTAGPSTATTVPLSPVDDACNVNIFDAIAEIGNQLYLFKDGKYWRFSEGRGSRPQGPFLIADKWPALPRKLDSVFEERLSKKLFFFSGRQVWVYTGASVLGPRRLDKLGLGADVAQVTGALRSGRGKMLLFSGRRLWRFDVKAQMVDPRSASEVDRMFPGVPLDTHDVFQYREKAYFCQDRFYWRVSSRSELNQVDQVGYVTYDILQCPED

| SMILES | IC50 (MMP-9) [nM] | IC50 (MMP-3) [nM] | IC50 (MMP-2) [nM] | inhibition at 5 µM (MMP-9) [%] | inhibition at 5 µM (MMP-3; at 5 μM) [%] | inhibition at 5 µM (MMP-2; at 5 μM) [%] |
| --- | --- | --- | --- | --- | --- | --- |
| O=C(O)[C@H]1[C@H](CSCc2ccccc2)CC[C@@H]1C(=O)c1ccc(-c2ccc(Cl)cc2)cc1 (relative stereo) [Example 372, Cyclopentanecarboxylic acid, 2-[(4'-chloro[1,1'-biphenyl]-4-yl)carbonyl]-5-[[(phenylmethyl)thio]methyl]-, (1α,2β,5β)-] | 65 | 39 | 22 | – | – | – |
| O=C(O)[C@@H]1[C@@H](C(=O)c2ccc(-c3ccc(Cl)cc3)cc2)CC[C@H]1SCc1ccccc1 (relative stereo) [Example 441, Cyclopentanecarboxylic acid, 2-[(4'-chloro[1,1'-biphenyl]-4-yl)carbonyl]-5-[(phenylmethyl)thio]-, (1α,2β,5β)-] | 149 | 38 | 27 | – | – | – |
| O=C(CC(CCc1ccccc1C(=O)O)C(=O)O)c1ccc(-c2ccc(Cl)cc2)cc1 (stereo not drawn) [Example 143, [1,1'-Biphenyl]-4-butanoic acid, α-[2-(2-carboxyphenyl)ethyl]-4'-chloro-γ-oxo-] | 1400 | 309 | 111 | – | – | – |
| O=C(CC(CCCc1ccccc1)C(=O)O)c1ccc(-c2ccc(OCc3cccnc3)cc2)cc1 (stereo not drawn) [Example 109, [1,1'-Biphenyl]-4-butanoic acid, γ-oxo-α-(3-phenylpropyl)-4'-(3-pyridinylmethoxy)-] | 1290 | 28 | 6.6 | – | – | – |
| O=C(CC(CCCc1ccccc1)C(=O)O)c1ccc(-c2ccc(OCc3ccc(C(F)(F)F)cc3)cc2)cc1 (stereo not drawn) [Example 104, [1,1'-Biphenyl]-4-butanoic acid, γ-oxo-α-(3-phenylpropyl)-4'-[[4-(trifluoromethyl)phenyl]methoxy]-] | – | 125 | 63 | 18 | – | – |
| Cc1ccc(/C=C/[C@@H]2CC[C@H](C(=O)c3ccc(-c4ccc(Cl)cc4)cc3)[C@H]2C(=O)O)cc1 (relative stereo) [Example 363, Cyclopentanecarboxylic acid, 2-[(4'-chloro[1,1'-biphenyl]-4-yl)carbonyl]-5-[2-(4-methylphenyl)ethenyl]-, [1α,2β,5β(E)]-] | – | 5000 | < 5000 | 37 | – | – |
| CCN(CC)C(=O)c1cccc(CCC(CC(=O)c2ccc(-c3ccc(Cl)cc3)cc2)C(=O)O)c1 (stereo not drawn) [Example 144, 4-[4-(4-chlorophenyl)phenyl]-4-oxo-2-[2-(3-N,N-diethylcarbamoyl)phenyl]butanoic acid] | 29 | 15 | 3.4 | – | – | – |
| O=C(c1ccc(-c2ccc(Cl)cc2)cc1)[C@@H]1CCN(C(=O)OCc2ccccc2)[C@H]1C(=O)O [Example 167, 1,2-Pyrrolidinedicarboxylic acid, 3-[(4'-chloro[1,1'-biphenyl]-4-yl)carbonyl],1-(phneylmethyl) ester, (2R-trans)-] | – | – | – | 23 | 18 | 31 |
| O=C(CC(CC[S+]([O-])c1ccccc1)C(=O)O)c1ccc(-c2ccc(Cl)cc2)cc1 (stereo not drawn) [Example 428, [1,1'-Biphenyl]-4-butanoic acid, 4'-chloro-γ-oxo-α-[2-(phenylsulfinyl)ethyl]-] | 119 | 53 | 16 | – | – | – |
| O=C(NC[C@@H]1CC[C@H](C(=O)c2ccc(-c3ccc(Cl)cc3)cc2)[C@H]1C(=O)O)c1ccccc1 (relative stereo) [Example 370, Cyclopentanecarboxylic acid, 2-[(benzoylamino)methyl]-[(4'-chloro[1,1'-biphenyl]-4-yl)carbonyl]-, (1α,2β,5β)-] | 26 | 24 | 8.7 | – | – | – |
| CC(C)COC(=O)N1CC[C@H](C(=O)c2ccc(-c3ccc(Cl)cc3)cc2)[C@H]1C(=O)O [Example 172, 1,2-PYrrolidinecarboxylic acid, 3-[(4'-chloro[1,1'-biphenyl]-4-yl)carbonyl]-, 1-(2-methylpropyl) ester, (2S-trans)-] | 1930 | 456 | 175 | – | – | – |
| O=C(CC(CCCc1ccccc1)C(=O)O)c1ccc(-c2ccc(OCC3CC3)cc2)cc1 (stereo not drawn) [Example 97, [1,1'-Biphenyl]-4-butanoic acid, 4'-(cyclopropylmethoxy)-γ-oxo-α-(3-phenylpropyl)-] | 229 | 153 | 48 | – | – | – |
| CCCCCOc1ccc(-c2ccc(C(=O)CC(CCc3ccccc3)C(=O)O)cc2)cc1 (stereo not drawn) [Example 158, [1,1'-Biphenyl]-4-butanoic acid, γ-oxo-4'-(pentyloxy)-α-(2-phenylethyl)-] | > 500 | 37 | 32 | – | – | – |
| O=C(CC(CCN1C(=O)CCC1=O)C(=O)O)c1ccc(-c2ccc(Cl)cc2)cc1 (stereo not drawn) [Example 411, 1-Pyrrolidinebutanoic acid, α-[2-(4'-chloro[1,1'-biphenyl]-4-yl)-2-oxoethyl]-2,5-dioxo-] | 213 | 116 | 27 | – | – | – |
| O=C(CC(CCN1C(=O)c2ccccc2C1=O)C(=O)O)c1ccc(-c2ccc(OCc3ccccc3)cc2)cc1 (stereo not drawn) [Example 271, 2H-Isoindole-2-butanoic acid, 1,3-dihydro-1,3-dioxo-α-[2-oxo-2-[4'-(phenylmethoxy)[1,1'-biphenyl]-4-yl]ethyl]-] | 7.9 | 5.2 | 1.4 | – | – | – |
| CC(=O)Oc1ccc2c(c1)C(=O)N(CCC(CC(=O)c1ccc(-c3ccc(Cl)cc3)cc1)C(=O)O)C2=O (stereo not drawn) [Example 425, 2H-Isoindole-2-butanoic acid, 5-(acetyloxy)-α-[2-(4'-chloro[1,1'-biphenyl]-4-7l)2-oxoetyl]-1,3-dihydro-1,3-dioxo-] | 1.2 | 3.8 | 14 | – | – | – |
| O=C(O)[C@H]1[C@H](COCc2ccccc2)CC[C@@H]1C(=O)c1ccc(-c2ccc(Cl)cc2)cc1 (relative stereo) [Example 365, Cyclopentanecarboxylic acid, 2-[(4'-chloro[1,1'-biphenyl]-4-yl)carbonyl]-5-[(phenylmethoxy)methyl]-, (1α,2β,5β)-] | 58 | 27 | 13 | – | – | – |
| O=C(O)[C@H]1[C@H](CSc2nc3ccccc3o2)CC[C@@H]1C(=O)c1ccc(-c2ccc(Cl)cc2)cc1 (relative stereo) [Example 384, Cyclopentanecarboxylic acid, 2-[(2-benzoxazolylthio)methyl]-5-[(4'-chloro[1,1'-biphenyl]-4-yl)carbonyl]-, (1α,2β,5β)-] | 167 | 129 | 78 | – | – | – |
| CCCCCOc1ccc(-c2ccc(C(=O)CC(CCN3C(=O)c4ccccc4C3=O)C(=O)O)cc2)cc1 (stereo not drawn) [Example 272] | 10.8 | 9.2 | 2.28 | – | – | – |
| CCOc1ccc(-c2ccc(C(=O)CC(CCc3ccccc3)C(=O)O)cc2)cc1 (stereo not drawn) [Example 156, [1,1'-Biphenyl]-4-butanoic acid, 4'-ethoxy-γ-oxo-α-(2-phenylethyl)-] | 145 | 126 | 21 | – | – | – |
| CC(C)(C)CC(=O)Nc1ccc(-c2ccc(C(=O)CC(CCc3ccccc3)C(=O)O)cc2)cc1 (stereo not drawn) [Example 141, [1,1'-Biphenyl]-4-butanoic acid, 4'-[(3,3-dimethyl-1-oxobutyl)amino]-γ-oxo-α-(2-phenylethyl)-] | – | < 5000 | 1170 | 0 | – | – |
| CC(C)COc1ccc(-c2ccc(C(=O)CC(CCCc3ccccc3)C(=O)O)cc2)cc1 (stereo not drawn) [Example 94, [1,1'-Biphenyl]-4-butanoic acid, 4'-(2-methylpropoxy)-γ-oxo-α-(3-phenylpropyl)-] | 1850 | 224 | 155 | – | – | – |
| O=C(O)[C@H]1[C@H](CN2C(=O)c3ccccc3C2=O)CC[C@@H]1C(=O)c1ccc(-c2ccc(Cl)cc2)cc1 (relative stereo) [Example 360, trans-5-[4-(4-chlorophenyl)phenylcarbonyl]-trans-2-phthalimidomethylcyclopentanecarboxylic acid] | 0.93 | 5.46 | 1.46 | – | – | – |
| CN(C)C(=O)c1cccc(SCC(CC(=O)c2ccc(-c3ccc(Cl)cc3)cc2)C(=O)O)c1 (stereo not drawn) [Example 437, [1,1'-Biphenyl]-4-butanoic acid, 4'-chloro-α-[[[3-[(dimethylamino)carbonyl]phenyl]thio]methyl]-γ-oxo-] | 366 | 50 | 15 | – | – | – |
| CCCCOc1ccc(-c2ccc(C(=O)CC(CCc3ccccc3)C(=O)O)cc2)cc1 (stereo not drawn) [Example 160, [1,1'-Biphenyl]-4-butanoic acid, 4'-butoxy-γ-oxo-α-(2-phenylethyl)-] | 1060 | 147 | 42 | – | – | – |
| O=C(O)[C@@H]1[C@@H](CN2C(=O)c3ccccc3C2=O)OC[C@H]1C(=O)c1ccc(-c2ccc(Cl)cc2)cc1 (relative stereo) [Example 403, 3-Furancarboxylic acid, 4-[(4'-chloro[1,1'-biphenyl]-4-yl)carbonyl]-2-[(1,3-dihydro-1,3-dioxo-2H-isoindol-2-yl)methyl]tetrahydro-, (2α,3β,4α)-] | 5.7 | 17 | 6.4 | – | – | – |
